US8557833B2, “Aminopyrimidines useful as kinase inhibitors” (priority 2005, dated 2013)
Read-outs that look alike come from different tables or passages of the source.

How the values were obtained:
Type in all cases: biochemical
FLT-3 = target: T1, FLT-3 (Homo sapiens, UniProt P36888); test: FLT-3 inhibition assay, radiometric filter-binding
T1 sequence (P36888 27-993): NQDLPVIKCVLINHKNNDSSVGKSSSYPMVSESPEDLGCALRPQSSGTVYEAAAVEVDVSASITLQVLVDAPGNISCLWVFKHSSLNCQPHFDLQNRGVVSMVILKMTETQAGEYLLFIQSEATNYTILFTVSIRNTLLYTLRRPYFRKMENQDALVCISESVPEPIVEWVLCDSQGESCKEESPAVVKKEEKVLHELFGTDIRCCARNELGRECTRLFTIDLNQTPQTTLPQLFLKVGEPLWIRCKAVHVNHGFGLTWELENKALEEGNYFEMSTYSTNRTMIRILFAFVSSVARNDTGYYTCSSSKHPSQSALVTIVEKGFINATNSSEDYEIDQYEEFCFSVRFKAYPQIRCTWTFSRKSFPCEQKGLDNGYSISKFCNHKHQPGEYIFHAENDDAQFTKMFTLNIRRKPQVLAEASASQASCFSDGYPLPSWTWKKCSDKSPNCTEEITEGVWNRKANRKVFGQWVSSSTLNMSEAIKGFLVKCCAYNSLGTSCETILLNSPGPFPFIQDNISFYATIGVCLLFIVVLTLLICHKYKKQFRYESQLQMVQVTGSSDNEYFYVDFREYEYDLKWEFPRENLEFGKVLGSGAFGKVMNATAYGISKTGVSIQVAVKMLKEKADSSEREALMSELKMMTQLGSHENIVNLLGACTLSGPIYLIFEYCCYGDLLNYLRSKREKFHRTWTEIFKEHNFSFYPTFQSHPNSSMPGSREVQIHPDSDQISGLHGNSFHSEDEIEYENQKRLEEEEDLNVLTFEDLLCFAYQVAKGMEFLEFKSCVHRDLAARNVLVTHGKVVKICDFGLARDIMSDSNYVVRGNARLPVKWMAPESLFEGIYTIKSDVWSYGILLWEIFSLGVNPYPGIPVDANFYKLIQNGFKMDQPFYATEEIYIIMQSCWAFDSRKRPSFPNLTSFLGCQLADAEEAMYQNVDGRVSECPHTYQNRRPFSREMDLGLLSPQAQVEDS
Procedure: This assay monitors the 33P incorporation into a substrate poly(Glu, Tyr) 4:1 (pE4Y). […] Final substrate concentrations in the assay were 90 μM ATP and 0.5 mg/ml pE4Y (both from Sigma Chemicals, St Louis, Mo.). […] Reactions were carried out at room temperature.
Two assay solutions were prepared. Solution 1 contains 100 mM HEPES (pH 7.5), 10 mM MgCl2, 25 mM NaCl, 1 mg/ml pE4Y and […] (containing 0.3 mCi of [γ-33^P]ATP for each reaction). Solution 2 contains 100 mM HEPES (pH 7.5), 10 mM MgCl2, 25 mM NaCl, 2 mM DTT, 0.02% BSA and 3 nM FLT-3. The assay was run on a 96 well plate by mixing 50 μl each of Solution 1 and […] of the compounds of the present invention. The reaction was initiated with Solution 2. […] All of the reaction volume was then transferred to a filter plate and washed with 5% TCA by a Harvester 9600 from TOMTEC (Hamden, Conn.). The amount of ^33P incorporation into pE4y was analyzed by a Packard Top Count Microplate Scintillation Counter (Meriden, Conn.). The data was fitted using Prism software to get an IC50 or Ki.

JAK-2 = JAK-2 (Homo sapiens, UniProt O60674); test: JAK2 inhibition assay; settings: 12 μM ATP, 15 μM poly(Glu)4Tyr
Chain of JAK-2 (O60674 whole entry, species assumed): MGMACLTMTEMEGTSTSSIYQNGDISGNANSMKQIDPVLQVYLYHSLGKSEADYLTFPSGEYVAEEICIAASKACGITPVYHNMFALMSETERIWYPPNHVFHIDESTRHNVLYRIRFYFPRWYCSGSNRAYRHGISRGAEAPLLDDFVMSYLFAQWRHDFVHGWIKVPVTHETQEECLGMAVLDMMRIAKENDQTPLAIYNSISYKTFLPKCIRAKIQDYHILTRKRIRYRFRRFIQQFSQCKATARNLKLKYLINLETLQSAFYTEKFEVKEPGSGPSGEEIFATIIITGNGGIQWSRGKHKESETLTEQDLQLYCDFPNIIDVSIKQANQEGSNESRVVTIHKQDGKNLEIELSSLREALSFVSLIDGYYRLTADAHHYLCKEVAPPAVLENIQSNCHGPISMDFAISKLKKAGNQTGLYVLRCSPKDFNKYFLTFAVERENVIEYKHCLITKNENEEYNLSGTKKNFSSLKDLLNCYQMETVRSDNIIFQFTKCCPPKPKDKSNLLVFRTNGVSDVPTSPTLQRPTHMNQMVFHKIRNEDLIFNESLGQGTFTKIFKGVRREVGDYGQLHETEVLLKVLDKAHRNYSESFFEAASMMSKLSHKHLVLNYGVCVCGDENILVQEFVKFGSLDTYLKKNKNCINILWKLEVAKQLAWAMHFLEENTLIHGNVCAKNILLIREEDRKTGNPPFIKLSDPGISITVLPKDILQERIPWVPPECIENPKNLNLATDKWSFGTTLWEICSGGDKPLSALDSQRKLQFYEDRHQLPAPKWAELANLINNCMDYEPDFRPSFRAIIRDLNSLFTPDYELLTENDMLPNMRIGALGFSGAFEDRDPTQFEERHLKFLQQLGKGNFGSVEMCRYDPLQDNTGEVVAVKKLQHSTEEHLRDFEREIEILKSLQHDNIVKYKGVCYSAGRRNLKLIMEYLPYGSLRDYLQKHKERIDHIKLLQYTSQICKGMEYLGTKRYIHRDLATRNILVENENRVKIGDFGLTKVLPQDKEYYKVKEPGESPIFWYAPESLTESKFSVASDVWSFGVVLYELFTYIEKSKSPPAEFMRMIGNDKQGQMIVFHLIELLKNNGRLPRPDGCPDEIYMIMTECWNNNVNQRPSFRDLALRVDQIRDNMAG

Aurora-2 (Aurora A) = target: T2, Aurora-2 (Aurora A) (Homo sapiens, UniProt O14965); test: Aurora-2 (Aurora A) inhibition assay, coupled enzyme
T2 sequence (O14965 1-403): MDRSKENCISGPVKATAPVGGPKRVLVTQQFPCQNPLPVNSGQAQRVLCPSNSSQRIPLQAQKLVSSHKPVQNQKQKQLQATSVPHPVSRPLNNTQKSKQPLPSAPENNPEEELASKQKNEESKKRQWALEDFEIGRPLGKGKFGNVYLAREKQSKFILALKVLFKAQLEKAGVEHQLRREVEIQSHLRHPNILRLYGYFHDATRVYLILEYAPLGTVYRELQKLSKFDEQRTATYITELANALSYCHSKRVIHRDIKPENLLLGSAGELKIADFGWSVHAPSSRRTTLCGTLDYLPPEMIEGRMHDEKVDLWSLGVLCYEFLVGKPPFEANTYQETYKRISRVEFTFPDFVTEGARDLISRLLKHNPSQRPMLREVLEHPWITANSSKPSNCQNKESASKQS
Procedure: Assays were carried out in a mixture of 100 mM Hepes (pH7.5), 10 mM MgCl2, 1 mM DTT, 25 mM NaCl, 2.5 mM phosphoenolpyruvate, 300 μM NADH, 30 μg/ml pyruvate kinase and 10 μg/ml lactate dehydrogenase. […] Assays were carried out at 30° C. and in the presence of 40 nM Aurora-2.
An assay stock buffer solution was prepared containing all of the reagents listed above, with the exception of Aurora-2 and the test compound of interest. […] The plate was preincubated for 10 minutes at 30° C. and the reaction initiated by addition of 10 μl of Aurora-2. Initial reaction rates were determined with a Molecular Devices SpectraMax Plus plate reader over a 10 minute time course. IC50 and Ki data were calculated from non-linear regression analysis using the Prism software package (GraphPad Prism version 3.0cx for Macintosh, GraphPad Software, San Diego Calif., USA).

[1] = 90 μM ATP, 0.5 mg/ml pE4Y, room temperature, read-out: FLT-3 Ki
[2] = 400 μM ATP, 570 μM Kemptide, 30° C., 40 nM Aurora-2, read-out: Aurora A Ki

Row | SMILES | Ki (FLT-3; [1]) [nM] | Ki (JAK-2) [nM] | Ki (Aurora-2 (Aurora A); [2]) [nM] | Ki (FLT-3) [nM] | Ki (Aurora-2 (Aurora A)) [nM]
1 | Cc1cc(Nc2cc(N3CCC3)nc(Sc3ccc(NC(=O)c4ccccc4Cl)cc3)n2)[nH]n1 [Compound I-1, N-{4-[4-Azetidin-1-yl-6-(5-methyl-2H-pyrazol-3-ylamino)-pyrimidin-2-ylsulfanyl]-phenyl}-2-chloro-benzamide] | 100 | 380 | 1 |  | 
2 | Cc1cc(Nc2cc(N3CCC3)nc(Sc3ccc(NC(=O)c4c(F)cccc4F)cc3)n2)[nH]n1 [Compound I-2, N-{4-[4-Azetidin-1-yl-6-(5-methyl-2H-pyrazol-3-ylamino)-pyrimidin-2-ylsulfanyl]-phenyl}-2,6-Difluoro-benzamide] | 180 | 67 | 1.9 |  | 
3 | Cc1cc(Nc2cc(N3CCC3)nc(Sc3ccc(NC(=O)c4ccccc4F)cc3)n2)[nH]n1 [Compound I-3] | 220 | 61 | 2.2 |  | 
4 | Cc1cccc(C(=O)Nc2ccc(Sc3nc(Nc4cc(C)[nH]n4)cc(N4CCC4)n3)cc2)c1 [Compound I-4] |  | 81 |  | 330 | 2.5
5 | Cc1cc(Nc2cc(N3CCC3)nc(Sc3ccc(NC(=O)c4ccccc4C)cc3)n2)[nH]n1 [Compound I-5] | 70 | 190 | 0.87 |  | 
6 | COc1ccccc1C(=O)Nc1ccc(Sc2nc(Nc3cc(C)[nH]n3)cc(N3CCC3)n2)cc1 [Compound I-6] |  | 1100 |  | 120 | 3
7 | Cc1cc(Nc2cc(N3CCC3)nc(Sc3ccc(NC(=O)c4ccccc4OC(F)(F)F)cc3)n2)[nH]n1 [Compound I-8] |  | 1700 |  | 170 | 0.67
8 | Cc1cc(Nc2cc(N3CCC3)nc(Sc3ccc(NC(=O)c4c(Cl)cccc4Cl)cc3)n2)n[nH]1 [Compound I-11] |  | 330 |  | 110 | 0.71
9 | Cc1cc(Nc2cc(N3CCC3)nc(Sc3ccc(NC(=O)c4cccc(Cl)c4)cc3)n2)n[nH]1 [Compound I-12] |  | 46 |  | 540 | 1.4
10 | Cc1cc(Nc2cc(N3CCC3)nc(Sc3ccc(NC(=O)c4cccc(C(F)(F)F)c4F)cc3)n2)n[nH]1 [Compound I-13] |  | 130 |  | 350 | 0.35
11 | Cc1cc(Nc2cc(N3CCC3)nc(Sc3ccc(NC(=O)c4ccccc4C(F)(F)F)cc3)n2)[nH]n1 [Compound I-14] | 170 | 720 | 0.38 |  | 

Results, then the compound that gave them:

Row | Ki (FLT-3; [1]) [nM] | Ki (JAK-2) [nM] | Ki (Aurora-2 (Aurora A); [2]) [nM] | Ki (FLT-3) [nM] | Ki (Aurora-2 (Aurora A)) [nM] | SMILES
12 |  | 46 |  | 160 | 0.76 | Cc1cc(Nc2cc(N3CCC3)nc(Sc3ccc(NC(=O)c4cccc(Cl)c4F)cc3)n2)n[nH]1 [Compound I-15]
13 |  | 410 | 0.65 | 100 |  | O=C(Nc1ccc(Sc2nc(Nc3cc(C4CC4)[nH]n3)cc(N3CCC3)n2)cc1)c1ccccc1Cl [Compound I-17]
14 | 160 | 410 | 1.2 |  |  | Cc1cc(Nc2cc(N3CCC3)nc(Sc3ccc(NC(=O)c4ccccc4C(F)F)cc3)n2)[nH]n1 [Compound I-19]
15 |  | 290 |  | 240 | 0.77 | Cc1cc(Nc2cc(N3CCC3)nc(Sc3ccc(NC(=O)c4cccc(C)c4Cl)cc3)n2)n[nH]1 [Compound I-20]
16 |  | 600 | 0.78 | 550 |  | Cc1cc(Nc2cc(N3CCC3)nc(Sc3ccc(NC(=O)c4cc(Cl)ccc4Cl)cc3)n2)n[nH]1 [Compound I-21]
17 |  | 500 |  | 190 | < 0.35 | CCc1cccc(C(=O)Nc2ccc(Sc3nc(Nc4cc(C)[nH]n4)cc(N4CCC4)n3)cc2)c1Cl [Compound I-22]
